The subject of data set [1] is Yersinia enterocolitica. Put plainly: Inactivation of Yersinia enterocolitica in RBC (colony count). In kind it is cell-based.
The nature of data set [2]: pH of quencher stock and of RBC mixture. Conditions: for pH of stock quencher: room temperature. In kind it is physicochemical. As for the experimental part:
The effect of various quenching conditions on the pH of a red blood cell composition was determined for various treatment conditions. The quencher solutions were prepared at a concentration of 600 mM in 8% dextrose monohydrate. […] Glutathione was assessed at 2 mM (acidic) or 20 mM (2 eq. of base). […] The pH of the quencher solution, either unmodified or neutralized, was measured using a standard Epoxy Calomel electrode (Beckman Instruments) at room temperature. […] The samples were mixed and the pH at room temperature was measured using the same electrode as described above.
In these, the appropriate amount of 600 mM stock was added, mixed with an appropriate volume of 8% dextrose to provide the same volume addition to each RBC sample where in one study, with varied glutathione concentrations, the pH was measured after adding glutathione and after adding PIC-1. […] Similar samples were also assessed for the inactivation of S. epidermidis. […] For gel card analysis, after incubation, the RBC were washed in BBS and were diluted in BBS to a final hematocrit of 4%. A 25 μL aliquot of each was mixed with 15 μL of rabbit polyclonal anti-acridine sera diluted either 1:4 or 1:100 in BBS and the mixture was incubated at 37° C. for 30 minutes. The cells were subsequently washed with 1.5 mL BBS. After washing was complete, the cells were mixed with goat anti-rabbit Fab′2 fragment anti H+L chains (1:4 dilution in PBS) and incubated at 37° C. for 30 minutes.

Where [3] appears, read: 0.2 mM PIC-1, 2 mM acidic glutathione (0 eq base), no delay.
[4] abbreviates: 20 mM cysteine+1 eq base, then 0.2 mM PIC-1 after 10 min.
[5] abbreviates: 20 mM cysteine+2 eq base, then 0.2 mM PIC-1 after 10 min.
The mark [6] stands for this setting: 20 mM glutathione+2 eq base, then 0.2 mM PIC-1 after 10 min.

Several values for one entry are separate records, joined by “and”; a condition that tells them apart may be missing. Equal entries are not always repeated.

On to `O=C(CCNc1c2ccccc2nc2ccccc12)OCCN(CCCl)CCCl` [PIC-1], for which the “Log Y. enterocolitica reduction” value is 8.49 Log in data set [1] (setting [3]), 4.04 Log in data set [1] (setting [4]), 5.79 Log in data set [1] (setting [5]) and 5.95 Log in data set [1] (setting [6]). In addition, the “Log Y. enterocolitica titer” value in data set [1] (setting [3]) is reported as 0.00 Log; in data set [1] (setting [4]), 4.45 Log; in data set [1] (setting [5]), 2.70 Log; in data set [1] (setting [6]), 2.54 Log. In addition, the “reduction of log inactivation relative to the standard condition” value in data set [1] (20 mM neutralized cysteine or neutralized glutathione, 0.2 mM PIC-1) is listed as “about 2.5 log”.

With `N[C@@H](CCC(=O)N[C@@H](CS)C(=O)NCC(=O)O)C(=O)O` [glutathione, γ-L-glutamyl-L-cysteinyl-glycine], the “pH of stock quencher” value in data set [2] (600 mM in 8% dextrose + 1 eq. base) is 6.1; in data set [2] (600 mM in 8% dextrose + 2 eq. base) it was 9.5 and 9.2; in data set [2] (600 mM in 8% dextrose, no base added) it was 2.82 and 3.0. The “pH of mixture Post quencher” value in data set [2] (RBC + 2 mM acidic glutathione) amounted to 6.7; in data set [2] (RBC + 2 mM glutathione + 1 eq. base), 6.8; in data set [2] (RBC + 2 mM glutathione + 2 eq. base) it was 6.8; in data set [2] (RBC + 5 mM acidic glutathione), 6.6; in data set [2] (RBC + 5 mM glutathione + 1 eq. base) it was 6.7; in data set [2] (RBC + 5 mM glutathione + 2 eq. base) it was 6.9. For the same compound, the “pH of mixture Post quencher” value in data set [2] (RBC + 10 mM acidic glutathione) came out at 6.4; in data set [2] (RBC + 10 mM glutathione + 1 eq. base), 6.7; in data set [2] (RBC + 10 mM glutathione + 2 eq. base) it was 7.2; in data set [2] (RBC + 20 mM acidic glutathione), 6.1; in data set [2] (RBC + 20 mM glutathione + 1 eq. base), 6.7; in data set [2] (RBC + 20 mM glutathione + 2 eq. base), 7.4. Besides, the “pH of mixture Final” value in data set [2] (RBC + 2 mM acidic glutathione + 0.2 mM PIC-1) worked out at 6.7; in data set [2] (RBC + 2 mM glutathione + 1 eq. base + 0.2 mM PIC-1), 6.8; in data set [2] (RBC + 2 mM glutathione + 2 eq. base + 0.2 mM PIC-1) it was 6.8; in data set [2] (RBC + 5 mM acidic glutathione + 0.2 mM PIC-1) it was 6.6; in data set [2] (RBC + 5 mM glutathione + 1 eq. base + 0.2 mM PIC-1), 6.7; in data set [2] (RBC + 5 mM glutathione + 2 eq. base + 0.2 mM PIC-1), 6.9. For the same compound, the “pH of mixture Final” value in data set [2] (RBC + 10 mM acidic glutathione + 0.2 mM PIC-1) was found to be 6.4; in data set [2] (RBC + 10 mM glutathione + 1 eq. base + 0.2 mM PIC-1) it was 6.7; in data set [2] (RBC + 10 mM glutathione + 2 eq. base + 0.2 mM PIC-1), 7.0; in data set [2] (RBC + 20 mM acidic glutathione + 0.2 mM PIC-1) it was 6.1; in data set [2] (RBC + 20 mM glutathione + 1 eq. base + 0.2 mM PIC-1), 6.7; in data set [2] (RBC + 20 mM glutathione + 2 eq. base + 0.2 mM PIC-1), 7.2. For the same compound, the figures for the “pH of final mixture” value in data set [2] (Table 10: RBC + 2 mM acidic quencher + 0.2 mM PIC-1) and in data set [2] (Table 10: RBC + 20 mM quencher + 2 eq. base + 0.2 mM PIC-1) were 6.9 and 7.7, respectively. The values for the pH of solution result in data set [2] (glutathione solution neutralized with 2 equivalents of sodium hydroxide) and in data set [2] (solution of the protonated glutathione) were “approximately 9.5” and “approximately 3”, respectively.

For the origin of these results see patent US7655392B2, “Quenching methods for red blood cell inactivation process” (priority 2004, dated 2010).
